What is called Kd is the constant that tells how readily two partners part at equilibrium.

For the assay, the target named is WDR5 (Homo sapiens (Human), UniProt P61964). In words: Surface Plasmon Resonance (SPR) assay, KD and residence time. The class given is binding. Conditions: surface plasmon resonance (SPR) assay; read-out: WDR5 binding affinity (KD).

As to `COc1cc(N2CCC=C(c3cc(NC(=O)c4c[nH]c(=O)cc4C(F)(F)F)c(N4C[C@@H](C)N(C)[C@@H](C)C4)cc3F)C2)ncn1` [Example 365, N-[4-fluoro-5-[1-(6-methoxypyrimidin-4-yl)-3,6-dihydro-2H-pyridin-5-yl]-2-[(3R,5S)-3,4,5-trimethylpiperazin-1-yl]phenyl]-6-oxo-4-(trifluoromethyl)-1H-pyridine-3-carboxamide], the equilibrium dissociation constant (Kd) amounted to 0.246 nM.

As for `COc1cnc(N2CC=C(c3cc(NC(=O)c4c[nH]c(=O)cc4C(F)(F)F)c(N4C[C@@H](C)N(C)[C@@H](C)C4)cc3F)CC2)nc1` [Example 366, N-[4-fluoro-5-[1-(5-methoxypyrimidin-2-yl)-3,6-dihydro-2H-pyridin-4-yl]-2-[(3R,5S)-3,4,5-trimethylpiperazin-1-yl]phenyl]-6-oxo-4-(trifluoromethyl)-1H-pyridine-3-carboxamide], the Kd was found to be 1.76 nM.

In the case of `C[C@@H]1CN(c2cc(F)c(C3=CCN(c4ncc(F)cn4)CC3)cc2NC(=O)c2c[nH]c(=O)cc2C(F)(F)F)C[C@H](C)N1C` [Example 367, N-[4-fluoro-5-[1-(5-fluoropyrimidin-2-yl)-3,6-dihydro-2H-pyridin-4-yl]-2-[(3R,5S)-3,4,5-trimethylpiperazin-1-yl]phenyl]-6-oxo-4-(trifluoromethyl)-1H-pyridine-3-carboxamide], the Kd came to 1.04 nM.

For the compound `Cc1cc(C)nc(N2CC=C(c3cc(NC(=O)c4c[nH]c(=O)cc4C(F)(F)F)c(N4C[C@@H](C)N(C)[C@@H](C)C4)cc3F)CC2)n1` [Example 368, N-[5-[1-(4,6-dimethylpyrimidin-2-yl)-3,6-dihydro-2H-pyridin-4-yl]-4-fluoro-2-[(3R,5S)-3,4,5-trimethylpiperazin-1-yl]phenyl]-6-oxo-4-(trifluoromethyl)-1H-pyridine-3-carboxamide], the equilibrium dissociation constant (Kd) is 2.3 nM.

For the compound `C[C@@H]1CN(c2cc(F)c(C3=CCN(c4ncc(C=O)cn4)CC3)cc2NC(=O)c2c[nH]c(=O)cc2C(F)(F)F)C[C@H](C)N1C` [Example 369, N-[4-fluoro-5-[1-(5-formylpyrimidin-2-yl)-3,6-dihydro-2H-pyridin-4-yl]-2-[(3R,5S)-3,4,5-trimethylpiperazin-1-yl]phenyl]-6-oxo-4-(trifluoromethyl)-1H-pyridine-3-carboxamide], the Kd was found to be 0.685 nM.

On to `C[C@@H]1CN(c2cc(F)c(-c3cnc(N(C)C4CCOCC4)nc3)cc2NC(=O)c2c[nH]c(=O)cc2C(F)(F)F)C[C@H](C)N1C` [Example 371, N-[4-fluoro-5-[2-[methyl(oxan-4-yl)amino]pyrimidin-5-yl]-2-[(3R,5S)-3,4,5-trimethylpiperazin-1-yl]phenyl]-6-oxo-4-(trifluoromethyl)-1H-pyridine-3-carboxamide], for which the Kd was determined as 0.59 nM.

Take `C[C@@H]1CN(c2cc(F)c(C3=CCCN(C(=O)N(C)C)C3)cc2NC(=O)c2c[nH]c(=O)cc2C(F)(F)F)C[C@H](C)N1C` [Example 372, N-[5-[1-(dimethylcarbamoyl)-3,6-dihydro-2H-pyridin-5-yl]-4-fluoro-2-[(3R,5S)-3,4,5-trimethylpiperazin-1-yl]phenyl]-6-oxo-4-(trifluoromethyl)-1H-pyridine-3-carboxamide]: the equilibrium dissociation constant (Kd) was 1.75 nM.

Turning to `C[C@@H]1CN(c2cc(F)c(C3=CCCN(C(=O)N4CCCC4)C3)cc2NC(=O)c2c[nH]c(=O)cc2C(F)(F)F)C[C@H](C)N1C` [Example 374, N-[4-fluoro-5-[1-(pyrrolidine-1-carbonyl)-3,6-dihydro-2H-pyridin-5-yl]-2-[(3R,5S)-3,4,5-trimethylpiperazin-1-yl]phenyl]-6-oxo-4-(trifluoromethyl)-1H-pyridine-3-carboxamide], the Kd came out at 1.15 nM.

Consider `COc1cnc(N2CCC=C(c3cc(NC(=O)c4c[nH]c(=O)cc4C(F)(F)F)c(N4C[C@@H](C)N(C)[C@@H](C)C4)cc3F)C2)nc1` [Example 375, N-[4-fluoro-5-[1-(5-methoxypyrimidin-2-yl)-3,6-dihydro-2H-pyridin-5-yl]-2-[(3R,5S)-3,4,5-trimethylpiperazin-1-yl]phenyl]-6-oxo-4-(trifluoromethyl)-1H-pyridine-3-carboxamide], for which the dissociation constant Kd stood at 0.688 nM.

Regarding `Cc1cnc(N2CCC=C(c3cc(NC(=O)c4c[nH]c(=O)cc4C(F)(F)F)c(N4C[C@@H](C)N(C)[C@@H](C)C4)cc3F)C2)nc1` [Example 376, N-[4-fluoro-5-[1-(5-methylpyrimidin-2-yl)-3,6-dihydro-2H-pyridin-5-yl]-2-[(3R,5S)-3,4,5-trimethylpiperazin-1-yl]phenyl]-6-oxo-4-(trifluoromethyl)-1H-pyridine-3-carboxamide], the Kd was determined as 0.673 nM.

Consider `C[C@@H]1CN(c2cc(F)c(C3=CCCN(c4ncc(F)cn4)C3)cc2NC(=O)c2c[nH]c(=O)cc2C(F)(F)F)C[C@H](C)N1C` [Example 377, N-[4-fluoro-5-[1-(5-fluoropyrimidin-2-yl)-3,6-dihydro-2H-pyridin-5-yl]-2-[(3R,5S)-3,4,5-trimethylpiperazin-1-yl]phenyl]-6-oxo-4-(trifluoromethyl)-1H-pyridine-3-carboxamide], for which the dissociation constant (Kd) was 1.3 nM.

For `C[C@@H]1CN(c2cc(F)c(-c3cnc(N4CCN(C)CC4)nc3)cc2NC(=O)c2ccc(F)cc2C(F)(F)F)C[C@H](C)N1C` [Example 379, 4-fluoro-N-[4-fluoro-5-[2-(4-methylpiperazin-1-yl)pyrimidin-5-yl]-2-[(3R,5S)-3,4,5-trimethylpiperazin-1-yl]phenyl]-2-(trifluoromethyl)benzamide], the Kd is 0.933 nM.

For `C[C@@H]1CN(c2cc(F)c(-c3cnc(N(C)C)nc3)cc2NC(=O)c2ccc(F)cc2C(F)(F)F)C[C@H](C)N1C` [Example 380, N-[5-[2-(dimethylamino)pyrimidin-5-yl]-4-fluoro-2-[(3R,5S)-3,4,5-trimethylpiperazin-1-yl]phenyl]-4-fluoro-2-(trifluoromethyl)benzamide], the Kd amounted to 1.7 nM.

Turning to `C[C@@H]1CN(c2ncc(-c3cc(NC(=O)c4ccc(F)cc4C(F)(F)F)c(N4C[C@@H](C)N(C)[C@@H](C)C4)cc3F)cn2)C[C@H](C)N1C` [Example 381, 4-fluoro-N-[4-fluoro-2-[(3R,5S)-3,4,5-trimethylpiperazin-1-yl]-5-[2-[(3R,5S)-3,4,5-trimethylpiperazin-1-yl]pyrimidin-5-yl]phenyl]-2-(trifluoromethyl)benzamide], the equilibrium dissociation constant (Kd) came to 0.31 nM.

With `C[C@@H]1CN(c2cc(F)c(-c3ccc(N4CCOCC4)nn3)cc2NC(=O)c2c[nH]c(=O)cc2C(F)(F)F)C[C@H](C)N1C` [Example 384, N-[4-fluoro-5-(6-morpholin-4-ylpyridazin-3-yl)-2-[(3R,5S)-3,4,5-trimethylpiperazin-1-yl]phenyl]-6-oxo-4-(trifluoromethyl)-1H-pyridine-3-carboxamide], the dissociation constant Kd was 1.53 nM.

As to `C[C@@H]1CN(c2ncc(-c3cc(NC(=O)c4c[nH]c(=O)cc4C(F)F)c(N4C[C@@H](C)N(C)[C@@H](C)C4)cc3F)cn2)C[C@H](C)O1` [Example 385, 4-(difluoromethyl)-N-[4-fluoro-5-[2-[(2R,6S)-2,6-dimethylmorpholin-4-yl]pyrimidin-5-yl]-2-[(3S,5R)-3,4,5-trimethylpiperazin-1-yl]phenyl]-6-oxo-1H-pyridine-3-carboxamide], the Kd amounted to 0.72 nM.

With `C[C@@H]1CN(c2ncc(-c3cc(NC(=O)c4c[nH]c(=O)cc4C(F)F)c(N4C[C@@H](C)N(C)[C@@H](C)C4)cc3F)cn2)CCO1` [Example 386, 4-(difluoromethyl)-N-[4-fluoro-5-[2-[(2R)-2-methylmorpholin-4-yl]pyrimidin-5-yl]-2-[(3R,5S)-3,4,5-trimethylpiperazin-1-yl]phenyl]-6-oxo-1H-pyridine-3-carboxamide], the Kd worked out at 1.49 nM.

Regarding `C[C@@H]1CN(c2ncc(-c3cc(NC(=O)c4c[nH]c(=O)cc4C(F)(F)F)c(N4C[C@@H](C)N(C)[C@@H](C)C4)cc3F)cn2)CCO1` [Example 388, N-[4-fluoro-5-[2-[(2R)-2-methylmorpholin-4-yl]pyrimidin-5-yl]-2-[(3R,5S)-3,4,5-trimethylpiperazin-1-yl]phenyl]-6-oxo-4-(trifluoromethyl)-1H-pyridine-3-carboxamide], the Kd came to 0.788 nM.

`C[C@@H]1CN(c2cc(F)c(C3=CCCN(c4ncccn4)C3)cc2NC(=O)c2cn(C)c(=O)cc2C(F)(F)F)C[C@H](C)N1C` [Example 391, N-[4-fluoro-5-(1-pyrimidin-2-yl-3,6-dihydro-2H-pyridin-5-yl)-2-[(3R,5S)-3,4,5-trimethylpiperazin-1-yl]phenyl]-1-methyl-6-oxo-4-(trifluoromethyl)pyridine-3-carboxamide]: the Kd worked out at 4.27 nM.

In the case of `C[C@@H]1CN(c2cc(F)c(N3CCN(Cc4ccc(F)cc4)CC3)cc2NC(=O)c2c[nH]c(=O)cc2C(F)(F)F)C[C@H](C)N1C` [Example 392, N-[4-fluoro-5-[4-[(4-fluorophenyl)methyl]piperazin-1-yl]-2-[(3R,5S)-3,4,5-trimethylpiperazin-1-yl]phenyl]-6-oxo-4-(trifluoromethyl)-1H-pyridine-3-carboxamide], the dissociation constant Kd amounted to 8.08 nM.

In the case of `C[C@@H]1CN(c2cc(F)c(N3CCN(c4ncccn4)CC3)cc2NC(=O)c2c[nH]c(=O)cc2C(F)(F)F)C[C@H](C)N1C` [Example 393, N-[4-fluoro-5-(4-pyrimidin-2-ylpiperazin-1-yl)-2-[(3R,5S)-3,4,5-trimethylpiperazin-1-yl]phenyl]-6-oxo-4-(trifluoromethyl)-1H-pyridine-3-carboxamide], the Kd stood at 13.3 nM.

With `C[C@@H]1CN(c2cc(F)c(C3=CCN(c4ncc(CO)cn4)CC3)cc2NC(=O)c2c[nH]c(=O)cc2C(F)(F)F)C[C@H](C)N1C` [Example 394, N-[4-fluoro-5-[1-[5-(hydroxymethyl)pyrimidin-2-yl]-3,6-dihydro-2H-pyridin-4-yl]-2-[(3R,5S)-3,4,5-trimethylpiperazin-1-yl]phenyl]-6-oxo-4-(trifluoromethyl)-1H-pyridine-3-carboxamide], the Kd was found to be 0.775 nM.

Turning to `C[C@@H]1CN(c2ncc(-c3cc(NC(=O)c4c[nH]c(=O)cc4C(F)F)c(N4CCN(C)[C@@H](C)C4)cc3F)cn2)CCO1` [Example 396, 4-(difluoromethyl)-N-[4-fluoro-2-[(3S)-3,4-dimethylpiperazin-1-yl]-5-[2-[(2R)-2-methylmorpholin-4-yl]pyrimidin-5-yl]phenyl]-6-oxo-1H-pyridine-3-carboxamide], the equilibrium dissociation constant (Kd) came to 0.564 nM.

These data come from patent US11319299B2, “Substituted carboxamides as inhibitors of WDR5 protein-protein binding” (PROPELLON THERAPEUTICS INC., priority 2016, dated 2022).
